In ChEMBL document CHEMBL1140378, “Fast small molecule similarity searching with multiple alignment profiles of molecules represented in one-dimension” (J Med Chem, 2005):

How the values were obtained:
[1] = biological target: T1, Glucagon receptor (Homo sapiens, UniProt P47871); assay: Antagonist activity against glucagon receptor; […]; assay type: functional
[2] = biological target: T1, Glucagon receptor; assay: Antagonist activity against glucagon receptor; assay type: functional
[3] = biological target: Mitogen-activated protein kinase 14 (Homo sapiens, UniProt Q16539); assay: Inhibitory activity against Mitogen-activated protein kinase 14, p38-alpha; No activity
Chain of Mitogen-activated protein kinase 14 (Q16539 whole entry): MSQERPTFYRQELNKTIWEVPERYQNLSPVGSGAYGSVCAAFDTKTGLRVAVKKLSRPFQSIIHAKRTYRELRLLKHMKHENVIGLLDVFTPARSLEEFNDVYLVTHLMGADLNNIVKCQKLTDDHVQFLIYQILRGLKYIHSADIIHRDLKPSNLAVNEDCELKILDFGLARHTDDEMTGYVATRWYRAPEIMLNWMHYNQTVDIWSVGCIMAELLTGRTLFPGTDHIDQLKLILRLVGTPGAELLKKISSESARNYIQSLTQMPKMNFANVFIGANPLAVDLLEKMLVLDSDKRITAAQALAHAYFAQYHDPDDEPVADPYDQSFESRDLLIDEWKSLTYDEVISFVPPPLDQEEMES

T1 sequence (P47871 whole entry): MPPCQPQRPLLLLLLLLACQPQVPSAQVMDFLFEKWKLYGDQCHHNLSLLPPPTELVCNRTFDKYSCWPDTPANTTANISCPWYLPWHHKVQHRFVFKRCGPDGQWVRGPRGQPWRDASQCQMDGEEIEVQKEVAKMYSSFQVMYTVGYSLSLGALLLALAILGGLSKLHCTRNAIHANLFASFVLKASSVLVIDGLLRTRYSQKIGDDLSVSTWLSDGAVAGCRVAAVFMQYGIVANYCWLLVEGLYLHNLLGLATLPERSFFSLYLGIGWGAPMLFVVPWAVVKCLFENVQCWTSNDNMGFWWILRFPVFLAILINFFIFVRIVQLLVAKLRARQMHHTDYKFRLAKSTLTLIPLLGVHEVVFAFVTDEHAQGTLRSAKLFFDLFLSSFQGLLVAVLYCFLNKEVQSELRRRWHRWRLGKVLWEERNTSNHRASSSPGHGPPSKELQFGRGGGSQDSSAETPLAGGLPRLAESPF

| IC50 [1] | IC50 [2] [nM] | IC50 [3] | SMILES |
| --- | --- | --- | --- |
| Not Active | – | – | O=C(O)c1ccc(-c2cc(-c3ccc(F)cc3)c(-c3ccncc3)[nH]2)cc1 |
| – | 32 | Not Active | CC(C)c1cc(-c2ccc(Cl)cc2)[nH]c1-c1ccncc1 |
